Measurements taken from PMC12694606, “DNA-programmed bispecific peptide assemblies for delivering cytotoxic payload to cells expressing EGFR and MET receptors” (RSC Chemical Biology, 2025).
Non-standard residues stand in square brackets, D forms with d. Residues, ends and D or L forms follow the SMILES beside them. *: point of attachment. Dolaproine = CO[C@@H]([C@@H]1CCCN1)[C@@H](C)C(=O)O; Dil = CC[C@H](C)[C@H](NC)[C@@H](CC(=O)O)OC; X1 = C[C@@H](N*)[C@@H](O)c1ccccc1; NMeV = CN[C@H](C(=O)O)C(C)C

Tested on: A549 cells (EGFR+, MET+)
Assay: AlamarBlue cell viability assay, A549 cells
Experimental: Fig. 5 (a) Arming DNA-template strands in OS21 and OS21+3 with the toxin vcMMAE. […] Viability was normalized to PBS treatment (100% value) and ethanol treatment (0% value). Conditions: 10^4 cells per well in 100 µL medium and propagated 24 h to a confluency of ca. 85% cells, probes were incubated for 10 min in PBS, 37 °C, 5% CO2; AlamarBlue assay in full medium, 6 h.
A549 cells were incubated with the oligonucleotide assemblies for ten minutes. Cell viability was assessed six hours later using an AlamarBlue assay. […] For comparison, we assessed the viability response to treatment with MMAE at a 100 nM concentration in unconjugated form. […] Next, the cells were treated in the presence of HGF.
A549 cells were seeded into wells of a 96 well-microtiter plate (100 μL in respective medium)
at a density of 10 4 cells/well. Cells were allowed to grow for 24 h to a confluency of ca. 85%.
The medium was removed and wells carefully washed once with PBS (preheated at 37°C). The
probes were added at specific concentrations in PBS with or without HGF (100 ng/mL). The
cells were incubated at 37°C, 5% CO 2 for 10 minutes. After one careful wash with PBS, 10%
alamar blue was added, and the fluorescence signal (590 nm) was recorded after 6 hours using
Cytotoxicity of cathepsin B-cleavable vcMMAE-DNA-peptide complex with different […]

| Compound | cell viability, control experiments (in words) (Fig. S17, 10 min in PBS, AlamarBlue 6 h) | cell viability (100 nM, unconjugated form, 10 min in PBS, AlamarBlue 6 h (Fig. S17)) [%] |
| --- | --- | --- |
| HGF: hepatocyte growth factor, used at 100 ng/mL to induce MET internalization | unaffected | – |
| CC[C@H](C)[C@@H]([C@@H](CC(=O)N1CCC[C@H]1[C@H](OC)[C@@H](C)C(=O)N[C@H](C)[C@@H](O)c1ccccc1)OC)N(C)C(=O)[C@@H](NC(=O)[C@@H](NC)C(C)C)C(C)C [MMAE, monomethyl auristatin E] (H-[NMeV]V[Dil][Dolaproine]-X1) | – | 79 |
